These results are taken from publication PMC8098127, “A new crystal form of GABARAPL2” (Acta Crystallographica. Section F, Structural Biology …, 2021).

The test deals with T1, GABARAPL2 (Homo sapiens, UniProt P60520).
T1 construct: GST (N, cleaved yes); made in house; host or cells: E. coli BL21 (DE3)
The test is described as follows: Surface plasmon resonance (SPR) binding of GABARAPL2 to captured NDP52 I133W LIR peptide, steady state. The settings on record: full-length GABARAPL2 (C-terminal Phe117 present) injected over N-terminal LC-biotin peptide on streptavidin chip, BIAcore S200, 10 mM HEPES, 150 mM NaCl, 3.4 mM EDTA, 0.05% Tween pH 7.4, threefold, ten-step dilution series, injected 160 s, 800 s dissociation, steady-state fit, report point 145 s after injection. The protocol:
GABARAPL2 was expressed and purified as described previously (Muhlinen et al., 2012[▸]). Briefly, Escherichia coli strain BL21 (DE3) cells were transformed with a pETM-30 plasmid harbouring the GABARAPL2 gene (Table 1 ▸). The cells were grown in 1 l Luria Broth (LB) medium supplemented with 100 mg l^−1 kanamycin at 37°C with agitation. Gene expression was induced when the cell density (OD600) reached approximately 0.6 by the addition of […] isopropyl β-D-1-thiogalactopyranoside (IPTG) for 3 h. Cell pellets were obtained by centrifugation at 5000g for 10 min and were lysed by sonication in lysis buffer (50 mM Tris pH 8.0, 150 mM NaCl, 1 mM EDTA) at 4°C. The lysate was clarified by centrifugation at 45 000g for 45 min and was filtered through a […] filter and immobilized on a column containing 1 ml Gluthathione Sepharose 4B resin (GE Life Sciences). GABARAPL2 was cleaved from the GST fusion protein on-column with 200 µg TEV protease and 0.5 mM TCEP overnight at 4°C. […]
Surface plasmon resonance (SPR) binding assays were performed using a BIAcore S200 in SPR buffer consisting of 10 mM HEPES, 150 mM NaCl, 3.4 mM EDTA, 0.05% Tween pH 7.4. […] The sensorgrams were analysed at steady state using a report point 145 s after injection, averaging the response over 5 s. […]
On the technique in general: In SPR one partner is held on a chip, and binding of the other changes the refractive index at the surface.

T1 sequence (P60520 with tags, fused parts or gaps): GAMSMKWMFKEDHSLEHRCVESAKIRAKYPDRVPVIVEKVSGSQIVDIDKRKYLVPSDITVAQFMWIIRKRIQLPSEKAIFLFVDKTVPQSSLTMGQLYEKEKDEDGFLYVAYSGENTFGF

As usually defined, the Kd is a measure of binding affinity in units of concentration. For the compound `CC(C)C[C@H](NC(=O)[C@H](Cc1c[nH]c2ccccc12)NC(=O)[C@H](CC(=O)O)NC(=O)[C@H](CCC(=O)O)NC(=O)[C@H](CCC(=O)O)NC(=O)[C@H](CC(N)=O)NC(=O)[C@@H](N)CCC(=O)O)C(=O)N[C@H](C(=O)N[C@H](C(=O)N[C@H](C(=O)N[C@H](C(=O)N[C@@H](CCC(N)=O)C(=O)NCC(=O)N[C@@H](CCC(=O)O)C(=O)O)[C@@H](C)O)[C@@H](C)O)C(C)C)C(C)C` [NDP52 I133W LIR peptide, ENEEDWLVVTTQGE], the Kd stood at 4.85 µM (SPR Experiment 1) and 5.07 µM (SPR Experiment 2).
